What was measured:
[1] = system: Cryptococcus neoformans spores (JEC20 x JEC21); assay: Quantitative germination assay (microfluidic devices, cell size and shape); assay type: cell-based
Protocol: All germination assays are based on Barkal et al., 2016. Briefly, microfluidic devices were loaded with 1×10^5 spores, and at 0 hours, SD media with drug of interest, were added to the sample. Spores were allowed to germinated at 30° C. in a humidified chamber and cells were monitored every two (2) hours for 16 hours. Each assay was performed in two (2) individual wells with three (3) field of views acquired from each well. All images were analyzed as previously described based on cell shape and size. Population ratio of spores, intermediate, and yeast cells were determined. Error bars in plots are based on variation between all fields of view acquired. […] After the 16-hour experiment, samples were plated on YPD and allowed to grow at 30° C. to determine if drugs were completely germicidal or not based on lack of growth. If assays were unable to be performed in microfluidic devices, the […] spores were incubated in identical conditions outside of PDMS devices and only loaded into devices for image acquisition.

[2] = system: Aspergillus Fumigatus (AF293); assay: Aspergillus fumigatus MIC on conidia; assay type: cell-based; conditions: testing performed on conidia
Protocol: Conidia at a final concentration of 2×10^4 cells were incubated in RPMI, 0.33 M MOPS, and 2% glucose at pH 7 at varying concentrations of inhibitors, with a final volume of 200 μL.

[3] = system: JEC20-GFPxJEC21-GFP spores in mouse lung; assay: In vivo germination (cells recovered from mouse lungs 8 hours post infection); design: species or system Cryptococcus neoformans; conditions: prophylactic 4 mg/kg/day for three days; cells recovered 8 hours post infection
Protocol: Female mice, 8- to 10-week-old C57BL/6J (Jackson Laboratory) female mice (3 mice per group) were used. Mice were dosed with either 4mg/kg/day or 1×PBS (50 μL) for three (3) consecutive days. Mice were intranasally infected with 2×10^6 JEC20-GFPxJEC21-GFP spores, strains described in Walsh et al., 2018. After 8 hours post-infection, mice were sacked and lavaged with 0.05% TirtonX in 1×PBS. Lavage suspension underwent a series of treatments and washes, in order: red blood cell lysis (ACK lysing buffer, 2 mL, 5 minutes), formaldehyde fixation (4%, 500 μL, 30 minutes) and calcofluor white staining (25 μg/mL, 20 μL for 1 minute). Cells (50-100 per mouse) were imaged, and identified as Cryptococcus neoformans cells based on green fluorescent signal or cyan staining from calcofluor staining. Cells surface area and aspect ratio were measured in ImageJ and cells were classified as spores, intermediates, or yeast based on size and shapes parameters used in the quantitative germination assay.
In vivo spore germination has never been characterized mainly due to technical hurdles. Using a novel assay, Cryptococcus neoformans cells were recovered from prophylactically treated, spore-infected mouse lungs 8 hours post infection. […] Based on size and shape of the cells, the level of in vivo spore germination was quantified.

[4] = system: JEC20×JEC21 yeast or spores in mouse lung; assay: Fungal burden animal studies (mouse lung colony-forming units); assay type: in vivo, Cryptococcus neoformans; conditions: for Lung fungal burden (colony-forming units) versus PBS-treated mice: 4 mg/kg/day intranasal for three days from 1-day post-infection, lungs day 4
Protocol: All yeast cells were cultured overnight in YPD, washed and diluted to 5×10^6 cells. For JEC20 and JEC21, 2.5×10^6 cells of each were combined. Spores were cultured as previously described and diluted to 2×10^6 cells. All experiments were performed on 8- to 10-week old C57BL/6J (Jackson Laboratory, Bar Harbor, Me., USA) female mice (5 mice per group). All mice were infected intranasally with a total of 50 μL. All dosing was performed with 4 mg/kg/day or 1×PBS for three (3) days either prior to infection or 1-day post-infection. Mice were sacked day-4 post-infection and lungs were collected, processed, and fungal burden was assessed.
Pentamidine is a successful inhibitor of Cryptococcus neoformans yeast replication in vitro. For repurposing potential, it is important to determine drug efficacy in vivo. For this purpose, the ability of pentamidine to lower the fungal burden in mouse lungs infected by both spores and yeast was determined. One-day post-infection intranasal dosing was begun at 4 mg/kg/day and the mice were treated for three consecutive days. On the fourth day post-infection, lungs were collected and fungal burden was determined. […] See FIG. 8A and FIG. 8B, respectively.
Pentamidine is a successful inhibitor of spore germination in vitro. It is important, though, to determine drug efficacy in vivo. Therefore, the ability of pentamidine to inhibit germination of spores in mouse lungs was determined. […], mice were infected with JEC20×JEC21 spores and 4-days post infection, mouse lungs were collected and lung fungal burden was determined.

In the case of N=C(N)c1ccc(OCCCCCOc2ccc(C(=N)N)cc2)cc1 [Pentamidine], the “Germicidal activity” value ([1]; 50 μg/mL) is reported as “showed germicidal activity”, the “Spore germination over a range of concentrations” value ([1]; as concentrations increased) is reported as “spore germination became slower” and the “Germicidal activity” value ([1]; lower concentration) is reported as “not germicidal”. The “Spore escape from inhibition (words)” value ([1]; yeast population increase = escape, listed as pentamidine) was “no individual spores were able to escape inhibition”, the “Ability to inhibit Aspergillus fumigatus” value [2] was “unable to inhibit” and the “Level of in vivo spore germination (spore, intermediate, yeast percent)” value [3] was “higher spore percent and a lower yeast percent”. For the same molecule, the “Lung fungal burden after prophylaxis versus 1×PBS” value ([4]; 4 mg/kg/day for three consecutive days prior to infection with JEC20×JEC21 spores, lungs 4-days post infection, FIG. 9, p<0.01) was “successful in decreasing spore-mediated lung burden”, the “Lung fungal burden (colony-forming units) versus PBS-treated mice” value ([4]; spore-infected C57BL/6J mice, FIG. 8B, p<0.01) was “significantly lower fungal burdens in the lung” and the “Lung fungal burden (colony-forming units) versus PBS-treated mice” value ([4]; yeast-infected C57BL/6J mice, FIG. 8A, p<0.05) was “significantly lower fungal burdens in the lung”.

Reference: US11981953B2, “Method to screen compounds for antifungal activity and pharmaceutical compositions and methods to treat fungal diseases by inhibiting spore germination” (WISCONSIN ALUMNI RESEARCH FOUNDATION, priority 2018, dated 2024)
